Target: T1, LIMK2 (Homo sapiens, UniProt P53671)
T1 construct: His tag (histidine-tagged; pFastBacHT vector); made in house; host or cells: Sf9 insect cells (BAC-to-BAC baculovirus system)
Assay: In vitro LIMK2 inhibition assay (33P incorporation into myelin basic protein flash plates)
Type: biochemical
Protocol: Using the procedures described herein and methods known in the art, the additional compounds listed below in Table 1 were prepared. The LIMK2 IC50 data that is provided below for some of the compounds was determined using the assay described in Example 32.
An in vitro assay used to identify LIMK2 inhibitors was developed. The analytical readout was the incorporation of ^33P from ATP substrate into immobilized myelin basic protein coated flash plates (Perkin Elmer Biosciences), which were counted on a scintillation counter equipped with a plate reader (TopCount, Packard Bioscience, Meriden, Conn.). Using 384 well flat MBP flashplates, total assay volume was 50 μl. The HTS program utilized a Biomek FX for dilution.
For each assay, the ingredients and conditions were as follows: 200 ng of enzyme was incubated in assay buffer (1× assay buffer contains 30 mM HEPES (pH 8.0), 5 mM DTT, and 10 mM MgCl2), 10 μM ATP, 0.2 μCi [gamma-^33P]-ATP and 10 μM of potential inhibitory compound. The reaction was incubated at room temperature for 60 minutes, washed 3 times with 75 μl of stop/wash buffer (1× stop/was buffer contains 50 mM EDTA and 20 mM Tris (pH 7.4)), and then the plates were read on the scintillation counter. Different concentrations of staurosporine (400 nM, 200 nM, 100 nM and 50 nM; purchased from BIOMOL (Plymouth Meeting, Pa.)) were used as controls on each plate.

T1 sequence (P53671 whole entry): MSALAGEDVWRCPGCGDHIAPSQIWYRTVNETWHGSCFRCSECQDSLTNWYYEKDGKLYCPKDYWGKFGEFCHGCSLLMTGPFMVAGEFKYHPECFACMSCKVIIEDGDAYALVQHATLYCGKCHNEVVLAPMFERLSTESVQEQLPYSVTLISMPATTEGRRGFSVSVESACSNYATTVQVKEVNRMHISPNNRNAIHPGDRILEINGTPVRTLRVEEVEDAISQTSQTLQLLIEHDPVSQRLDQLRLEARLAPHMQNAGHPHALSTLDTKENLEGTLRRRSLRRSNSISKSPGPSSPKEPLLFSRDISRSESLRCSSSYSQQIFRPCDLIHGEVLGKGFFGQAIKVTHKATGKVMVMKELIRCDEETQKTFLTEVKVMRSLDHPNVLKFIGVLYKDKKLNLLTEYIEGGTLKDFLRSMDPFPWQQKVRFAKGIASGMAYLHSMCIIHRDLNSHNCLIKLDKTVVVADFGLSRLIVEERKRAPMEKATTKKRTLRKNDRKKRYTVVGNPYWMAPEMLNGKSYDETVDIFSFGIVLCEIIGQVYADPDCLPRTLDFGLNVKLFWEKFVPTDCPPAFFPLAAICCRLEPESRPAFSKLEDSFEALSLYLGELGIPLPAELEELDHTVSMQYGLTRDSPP

Row | Structure (SMILES) | IC50
1 | Cc1c[nH]c2ncnc(N3CCC(CN)(C(=O)Nc4cccc(Cl)c4)CC3)c12 [4-(aminomethyl)-N-(3-chlorophenyl)-1-(5-methyl-7H-pyrrolo[2,3-d]pyrimidin-4-yl)piperidine-4-carboxamide] | < 250 nM
2 | Cc1cccc(NC(=O)C2(CN)CCN(c3ncnc4[nH]cc(C)c34)CC2)c1 [4-(aminomethyl)-1-(5-methyl-7H-pyrrolo[2,3-d]pyrimidin-4-yl)-N-m-tolylpiperidine-4-carboxamide] | < 250 nM
3 | Cc1c[nH]c2ncnc(N3CCC(CNC(=O)CC4NC(=O)NC4=O)(C(=O)Nc4cccc(OC(=O)N(C)C)c4)CC3)c12 (stereo not drawn) [3-(4-((2-(2,5-dioxoimidazolidin-4-yl)acetamido)methyl)-1-(5-methyl-7H-pyrrolo[2,3-d]pyrimidin-4-yl)piperidine-4-carboxamido)phenyl dimethylcarbamate] | < 250 nM
4 | Cc1c[nH]c2ncnc(N3CCC(CCN4CCOCC4)(C(=O)Nc4cccc(OC(=O)N(C)C)c4)CC3)c12 [3-(1-(5-methyl-7H-pyrrolo[2,3-d]pyrimidin-4-yl)-4-(2-morpholinoethyl)piperidine-4-carboxamido)phenyl dimethylcarbamate] | < 250 nM
5 | Cc1c[nH]c2ncnc(N3CCC(Cc4nnnn4Cc4ccccc4)(C(=O)Nc4cccc(OC(=O)N(C)C)c4)CC3)c12 [3-(4-((l-benzyl-1H-tetrazol-5-yl)methyl)-1-(5-methyl-7H-pyrrolo[2,3-d]pyrimidin-4-yl)piperidine-4-carboxamido)phenyl dimethylcarbamate] | < 250 nM
6 | Cc1c[nH]c2ncnc(N3CCC(CNS(C)(=O)=O)(C(=O)Nc4cccc(OC(=O)N(C)C)c4)CC3)c12 [3-(1-(5-methyl-7H-pyrrolo[2,3-d]pyrimidin-4-yl)-4-(methylsulfonamidomethyl)piperidine-4-carboxamido)phenyl dimethylcarbamate] | < 250 nM
7 | Cc1c[nH]c2ncnc(N3CCC(CN=[N+]=[N-])(C(=O)Nc4cccc(OC(=O)N(C)C)c4)CC3)c12 [3-(4-(azidomethyl)-1-(5-methyl-7H-pyrrolo[2,3-d]pyrimidin-4-yl)piperidine-4-carboxamido)phenyl dimethylcarbamate] | < 250 nM
8 | Cc1c[nH]c2ncnc(N3CCC(CN4CCOCC4)(C(=O)Nc4cccc(OC(=O)N(C)C)c4)CC3)c12 [3-(1-(5-methyl-7H-pyrrolo[2,3-d]pyrimidin-4-yl)-4-(morpholinomethyl)piperidine-4-carboxamido)phenyl dimethylcarbamate] | < 250 nM
9 | Cc1c[nH]c2ncnc(N3CCC(C)(C(=O)Nc4ccccc4)CC3)c12 [4-methyl-1-(5-methyl-7H-pyrrolo[2,3-d]pyrimidin-4-yl)-N-phenylpiperidine-4-carboxamide] | < 250 nM
10 | COCCOc1cccc(NC(=O)C2(CN)CCN(c3ncnc4[nH]cc(C)c34)CC2)c1 [4-(aminomethyl)-N-(3-(2-methoxyethoxy)phenyl)-1-(5-methyl-7H-pyrrolo[2,3-d]pyrimidin-4-yl)piperidine-4-carboxamide] | < 250 nM
11 | Cc1c[nH]c2ncnc(N3CCC(C)(C(=O)Nc4cccc(S(=O)(=O)NC(C)C)c4)CC3)c12 [N-(3-(N-isopropylsulfamoyl)phenyl)-4-methyl-1-(5-methyl-7H-pyrrolo[2,3-d]pyrimidin-4-yl)piperidine-4-carboxamide] | < 250 nM
12 | Cc1c[nH]c2ncnc(N3CCC(CNC(=O)C4(NC(=O)OC(C)(C)C)CC4)(C(=O)Nc4cccc(OC(=O)N(C)C)c4)CC3)c12 [3-(4-((1-tert-butoxycarbonylaminocyclopropanecarboxamido)methyl)-1-(5-methyl-7H-pyrrolo[2,3-d]pyrimidin-4-yl)piperidine-4-carboxamido)phenyl dimethylcarbamate] | < 250 nM
13 | Cc1c[nH]c2ncnc(N3CCC(CN)(C(=O)Nc4cccc(-c5cnco5)c4)CC3)c12 [4-(aminomethyl)-1-(5-methyl-7H-pyrrolo[2,3-d]pyrimidin-4-yl)-N-(3-(oxazol-5-yl)phenyl)piperidine-4-carboxamide] | < 250 nM
14 | Cc1c[nH]c2ncnc(N3CCC(C)(C(=O)Nc4cccc(Br)c4)CC3)c12 [N-(3-bromophenyl)-4-methyl-1-(5-methyl-7H-pyrrolo[2,3-d]pyrimidin-4-yl)piperidine-4-carboxamide] | < 250 nM
15 | C=CCC1(C(=O)Nc2cccc(Br)c2)CCN(c2ncnc3[nH]cc(C)c23)CC1 [4-allyl-N-(3-bromophenyl)-1-(5-methyl-7H-pyrrolo[2,3-d]pyrimidin-4-yl)piperidine-4-carboxamide] | < 250 nM
16 | Cc1c[nH]c2ncnc(N3CCC(CN)(C(=O)Nc4cccc(F)c4)CC3)c12 [4-(aminomethyl)-N-(3-fluorophenyl)-1-(5-methyl-7H-pyrrolo[2,3-d]pyrimidin-4-yl)piperidine-4-carboxamide] | < 250 nM
17 | Cc1c[nH]c2ncnc(N3CCC(Cc4nnn[nH]4)(C(=O)Nc4cccc(OC(=O)N(C)C)c4)CC3)c12 [3-(4-((1H-tetrazol-5-yl)methyl)-1-(5-methyl-7H-pyrrolo[2,3-d]pyrimidin-4-yl)piperidine-4-carboxamido)phenyl dimethylcarbamate] | < 250 nM
18 | Cc1c[nH]c2ncnc(N3CCC(CNC(N)=O)(C(=O)Nc4cccc(OC(=O)N(C)C)c4)CC3)c12 [3-(1-(5-methyl-7H-pyrrolo[2,3-d]pyrimidin-4-yl)-4-(ureidomethyl)piperidine-4-carboxamido)phenyl dimethylcarbamate] | < 250 nM
19 | Cc1c[nH]c2ncnc(N3CCC(C(=O)Nc4cccc(OC(=O)N(C)C)c4)(C(C)C)CC3)c12 [3-(4-isopropyl-1-(5-methyl-7H-pyrrolo[2,3-d]pyrimidin-4-yl)piperidine-4-carboxamido)phenyl dimethylcarbamate] | < 250 nM
20 | COCC(=O)NCC1(C(=O)Nc2cccc(OC(=O)N(C)C)c2)CCN(c2ncnc3[nH]cc(C)c23)CC1 [3-(4-((2-methoxyacetamido)methyl)-1-(5-methyl-7H-pyrrolo[2,3-d]pyrimidin-4-yl)piperidine-4-carboxamido)phenyl dimethylcarbamate] | < 250 nM
21 | CC1(C(=O)Nc2cccc(Br)c2)CCN(c2ncnc3[nH]cc(Cl)c23)CC1 [N-(3-bromophenyl)-1-(5-chloro-7H-pyrrolo[2,3-d]pyrimidin-4-yl)-4-methylpiperidine-4-carboxamide] | < 250 nM
22 | Cc1c[nH]c2ncnc(N3CCC(Cc4ncc[nH]4)(C(=O)Nc4cccc(OC(=O)N(C)C)c4)CC3)c12 [3-(4-((1H-imidazol-2-yl)methyl)-1-(5-methyl-7H-pyrrolo[2,3-d]pyrimidin-4-yl)piperidine-4-carboxamido)phenyl dimethylcarbamate] | < 250 nM
23 | Cc1c[nH]c2ncnc(N3CCC(NCCO)(C(=O)Nc4cccc(OC(=O)N(C)C)c4)CC3)c12 [3-(4-(2-hydroxyethylamino)-1-(5-methyl-7H-pyrrolo[2,3-d]pyrimidin-4-yl)piperidine-4-carboxamido)phenyl dimethylcarbamate] | < 250 nM
24 | Cc1c[nH]c2ncnc(N3CCC(CN)(C(=O)Nc4cccc(C(C)(C)C)c4)CC3)c12 [4-(aminomethyl)-N-(3-tert-butylphenyl)-1-(5-methyl-7H-pyrrolo[2,3-d]pyrimidin-4-yl)piperidine-4-carboxamide] | < 250 nM
25 | Cc1c[nH]c2ncnc(N3CCC(C)(C(=O)Nc4cccc(S(=O)(=O)N5CCOCC5)c4)CC3)c12 [4-methyl-1-(5-methyl-7H-pyrrolo[2,3-d]pyrimidin-4-yl)-N-(3-(morpholinosulfonyl)phenyl)piperidine-4-carboxamide] | < 250 nM
26 | Cc1cc(C(=O)NCC2(C(=O)Nc3cccc(OC(=O)N(C)C)c3)CCN(c3ncnc4[nH]cc(C)c34)CC2)n[nH]1 [3-(4-((5-methyl-1H-pyrazole-3-carboxamido)methyl)-1-(5-methyl-7H-pyrrolo[2,3-d]pyrimidin-4-yl)piperidine-4-carboxamido)phenyl dimethylcarbamate] | < 250 nM
27 | COc1cccc(NC(=O)C2(CN)CCN(c3ncnc4[nH]cc(C)c34)CC2)c1 [4-(aminomethyl)-N-(3-methoxyphenyl)-1-(5-methyl-7H-pyrrolo[2,3-d]pyrimidin-4-yl)piperidine-4-carboxamide] | < 250 nM
28 | Cc1c[nH]c2ncnc(N3CCC(CNC(=O)c4cnn(C)c4)(C(=O)Nc4cccc(OC(=O)N(C)C)c4)CC3)c12 [3-(4-((1-methyl-1H-pyrazole-4-carboxamido)methyl)-1-(5-methyl-7H-pyrrolo[2,3-d]pyrimidin-4-yl)piperidine-4-carboxamido)phenyl dimethylcarbamate] | < 250 nM
29 | Cc1c[nH]c2ncnc(N3CCC(NCCOCc4ccccc4)(C(=O)Nc4cccc(OC(=O)N(C)C)c4)CC3)c12 [3-(4-(2-(benzyloxy)ethylamino)-1-(5-methyl-7H-pyrrolo[2,3-d]pyrimidin-4-yl)piperidine-4-carboxamido)phenyl dimethylcarbamate] | < 250 nM
30 | Cc1c[nH]c2ncnc(N3CCC(CNC(=O)[C@@H](N)CCCN)(C(=O)Nc4cccc(OC(=O)N(C)C)c4)CC3)c12 [(S)-3-(4-((2,5-diaminopentanamido)methyl)-1-(5-methyl-7H-pyrrolo[2,3-d]pyrimidin-4-yl)piperidine-4-carboxamido)phenyl dimethylcarbamate] | < 250 nM

— US8450332B2, “LIMK2 inhibitors, compositions comprising them, and methods of their use” (Lexicon Pharmaceuticals, Inc., priority 2008, dated 2013)
